Data on two compounds can be found in patent US20210322651A1, “SUPPRESSION OF NEOINTIMAL FORMATION FOLLOWING VASCULAR SURGERU USING CDK8 INHIBITORS” (Senex Biotechnology, Inc., priority 2014, published 2021).

The structures appear in SMILES notation.

One assay relates to Sca-1+ VSCs. Put plainly: Sca-1+ cell growth in stem cell growth medium (daily cell count for 8 days; [3H]thymidine uptake). Format: cell-based, mouse.
A further assay deals with rat aortic SMCs (RASMCs). Put plainly: RASMC proliferation ([3H]thymidine uptake). Format: cell-based. Here is the method:
Rat aortic SMCs (RASMCs) were isolated from the thoracic aorta and cultured as described elsewhere^40. Enzymatically isolated SMCs from adult male Wistar rats were cultured in high glucose (4.5 g/L) Dulbecco's modified Eagle's medium (DMEM) (Cat#: 11995, Invitrogen, Grand Island, N.Y., USA) with 10% FBS (Invitrogen) in a CO2 incubator at 37° C. Subculture was performed when the cells were grown to the 70˜80% confluent state. We used the RASMCs at passage (P) 32 to do the [^3H]thymidine uptake assay. The P5 Sca-1^+ VSCs or P32 RASMCs were serum-starved for 24 h, and then cultured with full stem cell or regular growth medium with or without simvastatin for 24 h. [^3H]thymidine (1 μCi/ml) were added during the last 4 h of culture. The radioactivity was measured as previously described^41. […] Serum-starved RASMCs at passage 32 were treated with or without 10% FBS and Senexin (Senx A, 2.5 μM) for 24 h. n=4, *p<0.05 vs. control (−) in the same group.

Another assay concerns jugular vein isografts. Briefly: Neointimal formation in jugular vein isografts (cuff model; H&E and SMA staining, morphological analysis). Format: in vivo, C57BL/6J mice. As to the method:
Male C57BL/6J mice were purchased from Vital River Laboratory Animal Technology Co. Ltd, Beijing, China, and housed under a 12:12 h light-dark cycle and given free access to food and water. All animal experiments were performed according to National Institutes of Health Guidelines for the Care and Use of Laboratory Animals and approved by the Institutional Animal Care and Usage Committees at Shandong University and the University of South Carolina, USA. The jugular vein transplantation was performed using different male C57BL/6J mice as donors and recipients. Briefly, 12-wk-old male C57BL/6J mice were anesthetized with pentobarbital sodium (50 mg/kg body weight, i.p.). The operation was performed under a dissecting microscope (SZ2-ILST, Olympus Corporation, Tokyo, Japan). The right common carotid artery of a male C57BL/6J mouse was mobilized and divided. A 1-mm cuff with a 1-mm handle (0.65 mm in diameter outside and 0.5 mm inside, F 800/200/100/200, Portex Ltd) was placed on both ends of the artery, and the ends were reverted over the cuff and ligated with an 8-0 silk ligature (130715, 130715, LingQiao). External jugular vein (1 cm) from a donor mouse was harvested and washed with saline solution, and grafted between the 2 ends of the carotid artery without changing the direction of blood flow. The ischemia time of vein segments was less than 15 min. The results are shown in Examples 7-9.
Mice at 0, 1, 3, 7, 14, 21 and 42 days after transplantation (four randomly chosen mice at each time point) were anesthetized with pentobarbital sodium (50 mg/kg body weight, i.p.) and euthanized by exsanguination. […]
From the proximal end, the last section with the cuff tube was counted as #0. […]
(§1) Tissue sections were subjected to hematoxylin and eosin (H&E) or immunofluorescence staining as previously described^41. […] Fluorescent images were acquired by Nikon Eclipse Ti or UltraVIEW®VOX confocal microscope and analyzed with the Volocity software (PerkinElmer, Waltham, Mass., USA). […]

The test system of assay [1] is resident VSCs (Sca-1+, NFM+, Sox17+ cells) in jugular vein isografts. Briefly: Immunofluorescence staining of VSC and SMC markers (Sca-1, Ki67, SMA, NFM, Sox17) in jugular vein isografts after drug treatment. Format: in vivo, C57BL/6J mice. As to the method: Male C57BL/6J mice were purchased from Vital River Laboratory Animal Technology Co. Ltd, Beijing, China, and housed under a 12:12 h light-dark cycle and given free access to food and water. All animal experiments were performed according to National Institutes of Health Guidelines for the Care and Use of Laboratory Animals and approved by the Institutional Animal Care and Usage Committees at Shandong University and the University of South Carolina, USA. The jugular vein transplantation was performed using different male C57BL/6J mice as donors and recipients. Briefly, 12-wk-old male C57BL/6J mice were anesthetized with pentobarbital sodium (50 mg/kg body weight, i.p.). The operation was performed under a dissecting microscope (SZ2-ILST, Olympus Corporation, Tokyo, Japan). The right common carotid artery of a male C57BL/6J mouse was mobilized and divided. […]
as §1

Where [2] appears, read: Senexin B, concentration not given.

Protocol for Sca-1+ VSCs: Aortic adventitial Sca-1^+ cells were isolated and cultured as previously described^24. Briefly, the aortic arch and root together with a proportion of the heart from male 8-wk-old C57BL/6J mice were removed. Under a dissection microscope, adventitial tissues were carefully harvested. The adventitial tissues were cut into pieces (about 0.5 mm^3) and explanted onto a 3.5 cm dish in a CO2 incubator at 37° C. for 2 h. The stem cell growth medium (CellGro SCGM, CellGenix, Germany) containing 10% FBS (Gibco, USA), 10 ng/ml leukemia inhibitory factor (Lif) (Millipore, Temecula, Calif., USA) and 0.1 mmol/L 2-mercaptoethanol (Invitrogen, USA) was added and incubated for 5-7 days. Medium was changed every 2 days. […] The purity and viability of isolated Sca-1^+ cells were evaluated by immunostaining and trypan blue exclusion, respectively. […]
The P5 Sca-1^+ VSCs or P32 RASMCs were serum-starved for 24 h, and then cultured with full stem cell or regular growth medium with or without simvastatin for 24 h. […] The radioactivity was measured as previously described^41.
P7 Sca-1^+ VSCs (4×10^4/well) were seeded in stem cell medium (SCGM+10% FBS+10 ng/ml Lif+0.1 mmol/L 2-mercaptoethanol) with or without simvastatin (3 μmol/L) or Senexin A (2.5 μmol/L) in 6-well plates. […] The number of cells was counted daily for 8 days.

As to `N#Cc1ccc2ncnc(NCCc3ccccc3)c2c1` [Senexin A], the “Sca-1+ cell proliferation” value in the assay on Sca-1+ VSCs (Senexin A 2.5 μM, growth curve 8 days) is listed as “suppressed”. In the assay on rat aortic SMCs (RASMCs) (Senexin A 2.5 μM, 24 h, 10% FBS, passage 32), the “rat aortic SMC (RASMC) growth” value is “without affecting”. For the same compound, the “neointimal formation in vein isografts” value in the assay on jugular vein isografts (Senexin A (3 μmon) peri-vascular in Pluronic F-127 gel immediately after transplantation, 4 weeks) is “suppressed neointimal formation”. The “duration of inhibitory effect on neointimal formation in vein grafts” value in the assay on jugular vein isografts (short-term peri-vascular Senexin A, after transplantation) was determined as 100 days. Also, the “Sca-1+ cell differentiation into SMCs” value in assay [1] (local Senexin A, 7 days) was “inhibited”.

Take `CN1CCN(C(=O)c2ccc3cc(CCNc4ncnc5ccc(C#N)cc45)ccc3c2)CC1` [Senexin B]: in the assay with Sca-1+ VSCs (setting [2]), the “Sca-1+ cell growth” value is reported as “inhibited”. In addition, in the assay on rat aortic SMCs (RASMCs) (setting [2]), the SMC proliferation entry is “had no impact”. Further, the “neointimal formation in vein isografts” value with jugular vein isografts (Senexin B 20 mg/kg/d intragastric, started 3 days prior to transplantation, 4 wk) is given as “suppressed neointimal formation”. The “Sca-1+ cell differentiation into SMCs” value in assay [1] (Senexin B 20 mg/kg/d intragastric from 3 days prior, 14 and 28 days) is reported as “inhibited”.
